Reference: US11260079B2, “Dosing regimens for the mobilization of hematopoietic stem and progenitor cells” (Magenta Therapeutics, Inc., priority 2017, dated 2022)

Assays:
[1] = test system: CD34^+ hematopoietic stem and progenitor cells; conditions: Rhesus monkeys; plerixafor 1 mg/kg subcutaneously; median value
Method: (§1) Male rhesus macaques were treated with AMD3100 alone or in combination with Gro-β T. Blood was collected immediately prior to and 0.5, 1, 2, 4 and 24 hours after treatment and analyzed by multicolor flow cytometry to quantitate HSPC numbers. Additional aliquots of mobilized blood were plated in methylcellulose and CFU were enumerated seven days later.
The data shown in FIGS. 7 and 8 include the percentage of whole blood accounted for by CD34^+ hematopoietic stem and progenitor cells for each treatment group. Absolute numbers and fold change in CD34^+ cells per μL of peripheral blood were quantified with a single platform quantitative method. Data shown in FIGS. 7 and 8 are expressed as mean±SEM and represent 5 animals per group. Statistical significance was determined based on 2-way ANOVA with post-hoc Dunnett's multiple comparisons test (* p<0.05, ** p<0.01, **** p<0.0001).
The data shown in FIGS. 9 and 10 include the percentage of whole blood accounted for by CD34^+ CD90^+ CD45RA^− hematopoietic stem and progenitor cells for each treatment group. Absolute numbers and fold change in CD34^+ CD90^+ CD45RA^− cells per μL of peripheral blood are shown. Data shown in FIGS. 9 and 10 are expressed as mean±SEM and represent 5 animals per group. Statistical significance was determined based on 2-way ANOVA with post-hoc Dunnett's multiple comparisons test (* p<0.05. **p<0.01, *** p<0.001, **** p<0.0001).
Additional data summarizing the mobilization of CD34^+ cells (e.g., CD34^+ CD90^+ CD45RA^− cells) in Rhesus monkeys using various doses of Gro-beta T and AMD3100 are reported in TABLES 8-11, below. Quantities are reported in TABLES 8-11 using the following notation: “Median value (Minimum value observed−maximum value observed).”

[2] = test system: white blood cells, neutrophils, lymphocytes and monocytes; conditions: Rhesus monkeys; plerixafor 1 mg/kg subcutaneously; median value
Method: as §1
Animals were mobilized with AMD3100 alone or in combination with Gro-β T. Peripheral blood was collected at the time points shown and white blood cells enumerated on a HESKA Hematology Analyzer. Total number of white blood cells, neutrophils, lymphocytes and monocytes per μL of peripheral blood were determined. Data shown in FIGS. 2-5 are expressed as mean±SEM and represent 5 animals per group. Statistical significance was determined based on 2-way ANOVA with post-hoc Dunnett's multiple comparisons test (** p<0.01).

[3] = test system: NOD scid gamma (NSG) mice; test: Xenograft GVHD model; assay type: in vivo; conditions: for numbers of T-cells as compared to mice transplanted with Gro-β T and AMD3100-mobilized PBMCs: NSG mice, day 14 post-transplant; for mice died of aGVHD at day 24 / mice remained alive at day 60 post-transplant: sublethally irradiated NSG mice transplanted with 6×10^6 mobilized PBMCs
Method: To assess whether these immunosuppressive cells may prevent GVHD, we developed a xenograft GVHD model in NOD scid gamma (NSG) mice, which are immunodeficient mice. Gro-β T and AMD3100 mobilized peripheral blood (6×10^6 PBMCs) containing a high percentage of CD34^dim cells were injected into sublethally irradiated NSG mice. This was compared to unmobilized primate PBMCs (6×10^6 PBMCs) containing a relatively low numbers of CD34^dim cells and G-CSF mobilized primate PBMCs (6×10^6 PBMCs).

[4] = test system: hematopoietic stem and progenitor cell mobilization; conditions: cited from earlier work; for potency of hematopoietic stem and progenitor cell mobilization relative to Gro-β: described in U.S. Pat. Nos. 6,080,398 and 6,447,766
[5] = test system: stem and progenitor cells (LT-HSC); test: Mobilization of stem and progenitor cells in mice; assay type: in vivo; conditions: 15 minutes after a single injection
[6] = test system: CD34^dim cells; test: Mobilization of CD34^dim cells, flow cytometry; assay type: in vivo; conditions: Rhesus macaques; 4 hours after the last dose of G-CSF; n=3
Method: Cells were mobilized according to the method of Example 1. A sample of peripheral blood was tested using a flow cytometer for the markers CD34, CD11b, CD14, CD16, CD45, and SSC.
Rhesus macaques were treated with Gro-β T, […], Gro-β T and AMD3100, or G-CSF alone. A sample of peripheral blood was tested using a flow cytometry.

Molecule: c1cc(CN2CCCNCCNCCCNCC2)ccc1CN1CCCNCCNCCCNCC1 [plerixafor, 1,1′-[1,4-phenylenebis(methylene)]-bis-1,4,8,11-tetra-azacyclotetradecane]
- Fold increase vs. baseline following sc administration of AMD3100: CD34^+ [1]: 9.1 fold
- Fold increase vs. baseline following sc administration of AMD3100: CD34^+ CD90^+ CD54RA^− [1]: 14.9 fold
- Quantity of cells observed 4 hours following sc administration of AMD3100: CD34^+ [1]: 41054
- Quantity of cells observed 4 hours following sc administration of AMD3100: CD34^+ CD90^+ CD54RA^− [1]: 14820
- Ratio of fold increase of CD34^+ CD90^+ CD45RA^− cells to other cell populations: CD34^+ [1]: 1.4
- Ratio of fold increase of CD34^+ CD90^+ CD45RA^− cells to other cell populations: Lymphocytes [1]: 5.7
- Ratio of fold increase of CD34^+ CD90^+ CD45RA^− cells to other cell populations: Monocytes [1]: 1.6
- Ratio of fold increase of CD34^+ CD90^+ CD45RA^− cells to other cell populations: Neutrophils [1]: 3.0
- Ratio of fold increase of CD34^+ CD90^+ CD45RA^− cells to other cell populations: WBCs [1]: 3.7
- Ratio of fold increase of CD34^+ cells to other cell populations: CD34^+ CD90^+ CD54RA^− [1]: 0.7
- Ratio of fold increase of CD34^+ cells to other cell populations: Lymphocytes [1]: 4.0
- Ratio of fold increase of CD34^+ cells to other cell populations: Monocytes [1]: 1.2
- Ratio of fold increase of CD34^+ cells to other cell populations: Neutrophils [1]: 2.1
- Ratio of fold increase of CD34^+ cells to other cell populations: WBCs [1]: 2.3
- Ratio of quantity of CD34^+ CD90^+ CD45RA^− cells to other cell populations: CD34^+ [1]: 0.352
- Ratio of quantity of CD34^+ CD90^+ CD45RA^− cells to other cell populations: Lymphocytes [1]: 0.0011
- Ratio of quantity of CD34^+ CD90^+ CD45RA^− cells to other cell populations: Monocytes [1]: 0.0039
- Ratio of quantity of CD34^+ CD90^+ CD45RA^− cells to other cell populations: Neutrophils [1]: 0.0006
- Ratio of quantity of CD34^+ CD90^+ CD45RA^− cells to other cell populations: WBCs [1]: 0.0003
- Ratio of quantity of CD34^+ cells to other cell populations: CD34^+ CD90^+ CD54RA^− [1]: 2.838
- Ratio of quantity of CD34^+ cells to other cell populations: Lymphocytes [1]: 0.0025
- Ratio of quantity of CD34^+ cells to other cell populations: Monocytes [1]: 0.0111
- Ratio of quantity of CD34^+ cells to other cell populations: Neutrophils [1]: 0.0015
- Ratio of quantity of CD34^+ cells to other cell populations: WBCs [1]: 0.0009
- Fold increase vs. baseline following sc administration of AMD3100: Lymphocytes [2]: 2.5 fold
- Fold increase vs. baseline following sc administration of AMD3100: Monocytes [2]: 7.9 fold
- Fold increase vs. baseline following sc administration of AMD3100: Neutrophils [2]: 5.0 fold
- Fold increase vs. baseline following sc administration of AMD3100: WBCs [2]: 2.3 fold
- Quantity of cells observed 4 hours following sc administration of AMD3100: Lymphocytes [2]: 1.35E+07
- Quantity of cells observed 4 hours following sc administration of AMD3100: Monocytes [2]: 3.10E+06
- Quantity of cells observed 4 hours following sc administration of AMD3100: Neutrophils [2]: 2.10E+07
- Quantity of cells observed 4 hours following sc administration of AMD3100: WBCs [2]: 3.90E+07
- numbers of T-cells as compared to mice transplanted with Gro-β T and AMD3100-mobilized PBMCs [3]: approximately 60 fold
- mice died of aGVHD at day 24 [3]: 5/16
- mice remained alive at day 60 post-transplant [3]: 10/16

Molecule: Gro-β N69D: variant of Gro-β with aspartic acid in place of asparagine at position 69 (SEQ ID NO: 3)
- potency of hematopoietic stem and progenitor cell mobilization relative to Gro-β [4]: superior potency

Molecule: Gro-β T N65D: variant of Gro-β T with aspartic acid in place of asparagine at position 65 (SEQ ID NO: 4)
- potency of hematopoietic stem and progenitor cell mobilization relative to Gro-β T ([4]; described in U.S. Pat. No. 6,447,766): substantially greater than that of Gro-β T

Molecule: Gro-β T: CXCR2 agonist; Gro-β with deletion of the first four amino acids from the N-terminus (SEQ ID NO: 2)
- mobilization of stem and progenitor cells [5]: rapid mobilization
- potency of hematopoietic stem and progenitor cell mobilization relative to Gro-β [4]: superior to that of Gro-β by multiple orders of magnitude

B1: G-CSF: Filgrastim (G-CSF), most common clinical hematopoietic stem cell mobilization protocol (protein, chains of the INN, looked up)
chain: MTPLGPASSLPQSFLLKCLEQVRKIQGDGAALQEKLCATYKLCHPEELVLLGHSLGIPWAPLSSCPSQALQLAGCLSQLHSGLFLYQGLLQALEGISPELGPTLDTLQLDVADFATTIWQQMEELGMAPALQPTQGAMPAFASAFQRRAGGVLVASHLQSFLEVSYRVLRHLAQP
- increase over baseline in the number of CD34^dim cells [6]: about a nine-fold increase
- numbers of T-cells as compared to mice transplanted with Gro-β T and AMD3100-mobilized PBMCs [3]: approximately 10 fold
- mice died of aGVHD at day 24 [3]: 3/16
- mice remained alive at day 60 post-transplant [3]: 11/16
